According to patent publication US9616058B2, “Potent selective LSD1 inhibitors and dual LSD1/MAO-B inhibitors for antiviral use” (Oryzon Genomics, S.A., priority 2010, dated 2017):

What was measured:
Type in all cases: biochemical
[1] = molecular target: T1, Human recombinant monoamine oxidase MAO-A (Homo sapiens, UniProt P21397); assay: Monoamine oxidase assay (kynuramine fluorescence), MAO-A; conditions: Ki measured at Vmax/2
T1 construct: purchased Sigma Aldrich
T1 sequence (P21397 1-527): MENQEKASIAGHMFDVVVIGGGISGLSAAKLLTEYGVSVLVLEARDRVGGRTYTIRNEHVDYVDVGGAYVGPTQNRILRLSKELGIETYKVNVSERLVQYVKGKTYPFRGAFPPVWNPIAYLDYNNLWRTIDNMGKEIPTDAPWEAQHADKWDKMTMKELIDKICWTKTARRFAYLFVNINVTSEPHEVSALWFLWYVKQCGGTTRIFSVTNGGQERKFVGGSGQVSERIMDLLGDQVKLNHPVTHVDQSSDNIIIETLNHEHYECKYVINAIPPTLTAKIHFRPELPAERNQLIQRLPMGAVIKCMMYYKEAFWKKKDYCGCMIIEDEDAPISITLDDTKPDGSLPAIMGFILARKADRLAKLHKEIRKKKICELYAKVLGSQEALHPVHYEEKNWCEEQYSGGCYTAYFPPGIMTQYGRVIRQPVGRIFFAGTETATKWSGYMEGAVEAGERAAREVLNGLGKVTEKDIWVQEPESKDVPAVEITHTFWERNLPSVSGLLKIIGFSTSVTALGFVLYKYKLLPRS
Procedure: (§1) MOAs catalyze the oxidative deamination of 1°, 2′ and 3° amines.
(§2) The Ki of each inhibitor was measure at Vmax/2.

[2] = molecular target: T2, Human recombinant monoamine oxidase MAO-B (Homo sapiens, UniProt P27338); assay: Monoamine oxidase assay (kynuramine fluorescence), MAO-B; conditions: Ki measured at Vmax/2
T2 construct: purchased Sigma Aldrich
T2 sequence (P27338 1-520): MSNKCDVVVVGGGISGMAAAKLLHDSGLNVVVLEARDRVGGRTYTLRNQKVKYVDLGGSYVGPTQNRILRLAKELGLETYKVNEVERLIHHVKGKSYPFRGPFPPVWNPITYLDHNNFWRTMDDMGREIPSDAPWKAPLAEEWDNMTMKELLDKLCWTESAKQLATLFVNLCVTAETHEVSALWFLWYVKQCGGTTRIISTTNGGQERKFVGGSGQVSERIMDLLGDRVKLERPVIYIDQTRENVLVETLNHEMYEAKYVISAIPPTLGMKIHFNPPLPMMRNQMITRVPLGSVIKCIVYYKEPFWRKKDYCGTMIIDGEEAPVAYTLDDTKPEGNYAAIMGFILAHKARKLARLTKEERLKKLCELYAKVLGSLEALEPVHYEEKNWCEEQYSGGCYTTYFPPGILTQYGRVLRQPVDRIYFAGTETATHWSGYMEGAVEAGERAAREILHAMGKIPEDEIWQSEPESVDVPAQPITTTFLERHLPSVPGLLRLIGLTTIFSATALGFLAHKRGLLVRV
Procedure: as §1, §2

[3] = molecular target: T3, Human recombinant LSD1 protein (Homo sapiens, UniProt O60341); assay: LSD1 demethylase inhibition assay (Amplex Red peroxide/peroxidase-coupled); conditions: Ki (IC50) estimated at half of the maximum activity
T3 construct: purchased BPS Bioscience Inc
Source text: The compounds of the invention can be tested for their ability to inhibit LSD1.
The conversion of the Amplex®.

With c1ccc(C2C[C@@H]2NCCNC2CC2)cc1 (some centres unmarked) [Compound 2(A)] the Ki [1] was roughly 10 µM.

NC(=O)CN[C@H]1CC1c1ccc(OCc2cc(F)cc(F)c2)cc1 (some centres unmarked) [2(B)] showed a Ki [1] of 20 to 30 µM.

c1ccc(C2C[C@@H]2NCCN2CCNCC2)cc1 (some centres unmarked) [1(B)] showed a Ki [2] greater than 30 µM, a Ki [3] of less than 1 µM and a Ki [1] greater than 30 µM.

For N[C@@H]1CCN(CCN[C@H]2CC2c2ccccc2)C1 (some centres unmarked) [1(A)], the Ki [2] was greater than 40 µM, the Ki [3] was less than 1 µM and the Ki [1] was greater than 40 µM.
